ChEMBL document CHEMBL5030547, “Synthesis and biological studies of new piperidino-1,2,3-triazole hybrids with 3-aryl isoxazole side chains” (Bioorg Med Chem Lett, 2021)

Tests used:
[1] = tested on: Huh-7; experiment: Cytotoxicity against human Huh-7 cells assessed as reduction in cell viability after 48 hrs; type: functional, cell-based; settings: Huh-7, 48 h
[2] = tested on: Caco-2; experiment: Cytotoxicity against human Caco-2 cells assessed as reduction in cell viability after 48 hrs; type: functional, cell-based; settings: Caco-2, 48 h
[3] = tested on: MDA-MB-231; experiment: Cytotoxicity against human MDA-MB-231 cells assessed as reduction in cell viability after 48 hrs; type: functional, cell-based; settings: MDA-MB-231, 48 h
[4] = tested on: MDA-MB-468; experiment: Cytotoxicity against human MDA-MB-468 cells assessed as reduction in cell viability after 48 hrs; type: functional, cell-based; settings: MDA-MB-468, 48 h
[5] = tested on: HCT-116; experiment: Cytotoxicity against human HCT-116 cells assessed as reduction in cell viability after 48 hrs; type: functional, cell-based; settings: HCT-116, 48 h
[6] = tested on: PC-3; experiment: Cytotoxicity against human PC-3 cells assessed as reduction in cell viability after 48 hrs; type: functional, cell-based; settings: PC-3, 48 h
[7] = tested on: MCF7; experiment: Cytotoxicity against human MCF7 cells assessed as reduction in cell viability after 48 hrs; type: functional, cell-based; settings: MCF7, 48 h
[8] = tested on: Fibroblast; experiment: Cytotoxicity against human skin fibroblast cells assessed as reduction in cell viability after 48 hrs; type: cell-based
[9] = tested on: MCF7; experiment: Inhibition of Bcl-XL- PUMA protein-protein interaction in human MCF7 cells at 20 uM incubated for overnight by BRET assay relative to control; type: cell-based
[10] = Inhibition of Bcl-XL- PUMA protein-protein interaction in human MCF7 cells incubated for overnight by BRET assay; type: cell-based

Row | SMILES | IC50 ([1]; read-out: IC50) [µM] | IC50 [2] [µM] | IC50 [3] [µM] | IC50 [4] [µM] | IC50 [5] [µM] | IC50 [6] [µM] | IC50 [7] [µM] | IC50 [8] [µM] | IC50 [1] [µM] | inhibition [9] [%] | IC50 [10] [µM]
1 | N#Cc1cccc(-c2cc(COC(Cc3cn(C4CCN(Cc5ccc([N+](=O)[O-])cc5)CC4)nn3)c3ccc(Br)cc3)on2)c1 (centres undefined) | 3 | 3 | > 25 | > 25 | > 25 | > 25 | 2 | > 25 |  |  | 
2 | O=[N+]([O-])c1ccc(CN2CCC(n3cc(CC(OCc4cc(-c5cccc(Br)c5)no4)c4ccc(Br)cc4)nn3)CC2)cc1 (centres undefined) | 3 | 5 | > 25 | > 25 | > 25 | > 25 | 6 | > 25 |  |  | 
3 | COc1cccc2c1C(=O)c1c(O)c3c(c(O)c1C2=O)C[C@@](O)(C(=O)CO)C[C@@H]3O[C@H]1C[C@H](N)[C@H](O)[C@H](C)O1 [DOXORUBICIN] | 0.02 |  | 0.04 | 0.06 | 0.08 |  | 0.1 | 0.02 |  |  | 
4 | CC[C@H](CO)Nc1nc(NCc2ccccc2)c2ncn(C(C)C)c2n1 [SELICICLIB] |  |  | 17 | 18 |  | 11 |  | 15 | 9 |  | 
5 | COc1ccccc1-c1cc(COC(Cc2cn(C3CCN(Cc4ccc([N+](=O)[O-])cc4)CC3)nn2)c2ccc(Br)cc2)on1 (centres undefined) | 5 | > 25 | > 25 | > 25 | > 25 | > 25 | 3 | > 25 |  |  | 
6 | O=[N+]([O-])c1ccc(CN2CCC(n3cc(CC(OCc4cc(-c5cccc(F)c5)no4)c4ccc(Br)cc4)nn3)CC2)cc1 (centres undefined) | 3 | 5 | 5 | 3 | 6 | 9 | 8 | 10 |  |  | 
7 | O=[N+]([O-])c1ccc(CN2CCC(n3cc(CC(OCc4cc(-c5ccccc5Br)no4)c4ccc(Br)cc4)nn3)CC2)cc1 (centres undefined) | > 25 | 3 | > 25 | > 25 | > 25 | > 25 | 6 | > 25 |  |  | 
8 | COc1ccc(-c2cc(COC(Cc3cn(C4CCN(Cc5ccc([N+](=O)[O-])cc5)CC4)nn3)c3ccc(Br)cc3)on2)cc1 (centres undefined) | 2 | 3 | > 25 | 9 | > 25 | 3 | 4 | > 25 |  |  | 
9 | COc1cccc(-c2cc(COC(Cc3cn(C4CCN(Cc5ccc([N+](=O)[O-])cc5)CC4)nn3)c3ccc(Br)cc3)on2)c1 (centres undefined) | 5 | 5 | > 25 | > 25 | > 25 | > 25 | 7 | > 25 |  |  | 
10 | O=[N+]([O-])c1ccc(CN2CCC(n3cc(CC(OCc4cc(-c5ccccc5F)no4)c4ccc(Br)cc4)nn3)CC2)cc1 (centres undefined) | 2 | 4 | 4 | 4 | 9 | 6 | 8 | > 25 |  | 10 | 3.8
11 | O=[N+]([O-])c1ccc(CN2CCC(n3cc(CC(OCc4cc(-c5ccccc5)no4)c4ccc(Br)cc4)nn3)CC2)cc1 (centres undefined) | 7 | 7 | > 25 | 3 | > 25 | > 25 | > 25 | > 25 |  |  | 
12 | N#Cc1ccc(-c2cc(COC(Cc3cn(C4CCN(Cc5ccc([N+](=O)[O-])cc5)CC4)nn3)c3ccc(Br)cc3)on2)cc1 (centres undefined) | 5 | 2 | > 25 | 5 | > 25 | 2 | 3 | > 25 |  |  | 
13 | O=[N+]([O-])c1ccc(CN2CCC(n3cc(CC(OCc4cc(-c5ccc(F)cc5)no4)c4ccc(Br)cc4)nn3)CC2)cc1 (centres undefined) | 2 | 3 | > 25 | 4 | > 25 | > 25 | 7 | > 25 |  |  | 
14 | O=[N+]([O-])c1ccc(CN2CCC(n3cc(CC(OCc4cc(-c5ccc(Br)cc5)no4)c4ccc(Br)cc4)nn3)CC2)cc1 (centres undefined) | 2 | 3 | > 25 | 5 | > 25 | > 25 | 4 | > 25 |  |  | 
